Laboratory results taken from patent publication US6407204B1 (priority 1997, dated 2002).

How the values were obtained:
Male Sprague-Dawley rats [1] = conditions: rat, in vivo
Male Sprague-Dawley rats [2] = conditions: rat, in vivo; remark: listed apart in the source

Substance	ED50 in phase II (Male Sprague-Dawley rats [1]) [µg]	analgesic doses in the formalin test (Male Sprague-Dawley rats [1]) [µg]	effect on phase I flinches (Male Sprague-Dawley rats [1])	effect on phase II flinches (Male Sprague-Dawley rats [1])	potency in phase II (tonic pain) versus phase I (acute pain) (Male Sprague-Dawley rats [1])	overt signs of toxicity (Male Sprague-Dawley rats [2])	dose required to induce analgesic effects in both acute and tonic pain portions (Male Sprague-Dawley rats [1])	effect of the single agent alone (Male Sprague-Dawley rats [1])	rats showing signs of incoordination (Male Sprague-Dawley rats [2])
Gly-Glu-Gla-Gla-Leu-Gln-Gla-Asn-Gln-Gla-Leu-Ile-Arg-Gla-Lys-Ser-Asn-NH2 [Conantokin G]	0.15	0.05 to 1	without significantly decreasing	nearly abolished	very potent	no overt signs of toxicity			
Gly-Glu-Gla-Gla-Val-Ala-Lys-Met-Ala-Ala-Glu-Leu-Ala-Arg-Glu-Asn-Ile-Ala-Lys-Gly-Cys-Lys-Val-Asn-Cys-Tyr-Pro [Conantokin R]							more than 3.3 μg	no effect	One of six rats
